Assay results from article PMC8205491, “Tetrahydroxanthohumol, a xanthohumol derivative, attenuates high-fat diet-induced hepatic steatosis by antagonizing PPARγ” (eLife, 2021).

Molecular target: T1, PPARγ (Homo sapiens, UniProt P37231)
T1 construct: gene PPARG
T1 sequence (P37231 235-505 limits assumed): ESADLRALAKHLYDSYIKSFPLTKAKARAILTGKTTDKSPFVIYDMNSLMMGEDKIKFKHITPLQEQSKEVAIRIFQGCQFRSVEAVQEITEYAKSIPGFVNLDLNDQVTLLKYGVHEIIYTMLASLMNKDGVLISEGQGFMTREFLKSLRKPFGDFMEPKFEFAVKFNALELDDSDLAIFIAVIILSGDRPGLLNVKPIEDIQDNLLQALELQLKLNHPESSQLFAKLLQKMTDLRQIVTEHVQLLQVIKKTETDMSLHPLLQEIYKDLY
Test: LanthaScreen TR-FRET competitive binding assay (displacement of Fluormone Pan-PPAR Green)

CCCCCCCC/C=C\CCCCCCCC(=O)O [Oleic acid]
IC50: 16.6 µM

COc1cc(O)c(CCC(C)C)c(O)c1C(=O)CCc1ccc(O)cc1 [TXN, Tetrahydroxanthohumol]
IC50: 1.38 µM

COc1cc(O)c(CC=C(C)C)c(O)c1C(=O)/C=C/c1ccc(O)cc1 [XN, Xanthohumol]
IC50: 1.97 µM
